Our source for the IC50 values is patent US9247759B2, “Identification of human T2R receptors that respond to bitter compounds that elicit the bitter taste in compositions, and the use thereof in assays to identify compounds that inhibit (block) bitter taste in compositions and use thereof” (SENOMYX, INC., priority 2007, dated 2016).

Chain of hT2R8 (Q9NYW2 whole entry): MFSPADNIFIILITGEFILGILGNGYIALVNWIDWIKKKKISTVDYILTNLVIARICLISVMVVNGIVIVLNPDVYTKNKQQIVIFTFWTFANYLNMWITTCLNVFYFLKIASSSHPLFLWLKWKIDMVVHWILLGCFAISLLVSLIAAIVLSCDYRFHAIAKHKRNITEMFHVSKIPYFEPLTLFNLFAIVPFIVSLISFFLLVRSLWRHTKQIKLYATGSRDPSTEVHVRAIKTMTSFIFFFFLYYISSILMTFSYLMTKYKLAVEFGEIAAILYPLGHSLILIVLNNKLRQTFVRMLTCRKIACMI

In the assay the target is hT2R8 (Homo sapiens (Human), UniProt Q9NYW2). Put plainly: hT2R8 antagonist high-throughput FLIPR assay, stable cell line with G16g44, agonist andrographolide. The note with it: read-out: IC50 on hT2R8 bitter receptor. Type of assay: cell-based. An outline of the steps:
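Antagonist screen: compounds co-applied with agonist andrographolide at 200 μM, a dose giving 70–80% of maximal hT2R8 activation. Fluorescence measured by FLIPR in a stable HEK293 line expressing both hT2R8 and the promiscuous G16g44 protein.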
For `COc1ccc(CN2C(=O)N(c3cnn(Cc4c(C)noc4C)c3)C(=O)C23CC3)cc1O` [Example 12-12, 6-(1-((3,5-dimethylisoxazol-4-yl)methyl)-1H-pyrazol-4-yl)-4-(3-hydroxy-4-methoxybenzyl)-4,6-diazaspiro[2.4]heptane-5,7-dione], the IC50 was found to be 20 nM.

For `COc1ccc(CN2C(=O)N(c3cnn(Cc4c(C)noc4C)c3)C(=O)C23CC3)cc1OC` [Example 12-13, 4-(3,4-dimethoxybenzyl)-6-(1-((3,5-dimethylisoxazol-4-yl)methyl)-1H-pyrazol-4-yl)-4,6-diazaspiro[2.4]heptane-5,7-dione], the concentration for half-maximal inhibition (IC50) came to 20 nM.

Take `COCc1cccc(CN2C(=O)N(c3cnn(Cc4c(C)noc4C)c3)C(=O)C23CC3)c1` [Example 12-14, 6-(1-((3,5-dimethylisoxazol-4-yl)methyl)-1H-pyrazol-4-yl)-4-(3-(methoxymethyl)benzyl)-4,6-diazaspiro[2.4]heptane-5,7-dione]: the IC50 is 30 nM.

As to `Cc1noc(C)c1Cn1cc(N2C(=O)N(Cc3cccc(O)c3)C3(CC3)C2=O)cn1` [Example 12-15, 6-(1-((3,5-dimethylisoxazol-4-yl)methyl)-1H-pyrazol-4-yl)-4-(3-hydroxybenzyl)-4,6-diazaspiro[2.4]heptane-5,7-dione], the IC50 is 20 nM.

As for `Cc1noc(C)c1Cn1cc(N2C(=O)N(Cc3ccc(C#N)cc3)C(C)(C)C2=O)cn1` [Example 12-16, 4-((3-(1-((3,5-dimethylisoxazol-4-yl)methyl)-1H-pyrazol-4-yl)-5,5-dimethyl-2,4-dioxoimidazolidin-1-yl)methyl)benzonitrile], the 50% inhibitory concentration (IC50) turned out to be 40 nM.

In the case of `Cc1noc(C)c1Cn1cc(N2C(=O)NC(C)(C)C2=O)cn1` [Example 12-16a, 3-(1-((3,5-dimethylisoxazol-4-yl)methyl)-1H-pyrazol-4-yl)-5,5-dimethylimidazolidine-2,4-dione], the IC50 amounted to 2270 nM.

Consider `COc1cc(CN2C(=O)N(c3cnn(Cc4c(C)noc4C)c3)C(=O)C2(C)C)cc(OC)c1` [Example 12-18, 1-(3,5-dimethoxybenzyl)-3-(1-((3,5-dimethylisoxazol-4-yl)methyl)-1H-pyrazol-4-yl)-5,5-dimethylimidazolidine-2,4-dione], for which the IC50 stood at 300 nM.

`Cc1noc(C)c1Cn1cc(N2C(=O)N(Cc3ccc(F)c(O)c3)C(C)(C)C2=O)cn1` [Example 12-19, 3-(1-((3,5-dimethylisoxazol-4-yl)methyl)-1H-pyrazol-4-yl)-1-(4-fluoro-3-hydroxybenzyl)-5,5-dimethylimidazolidine-2,4-dione]: the IC50 is 10 nM.

As for `COc1cc(CN2C(=O)N(c3cnn(Cc4c(C)noc4C)c3)C(=O)C2(C)C)ccc1F` [Example 12-20, 3-(1-((3,5-dimethylisoxazol-4-yl)methyl)-1H-pyrazol-4-yl)-1-(4-fluoro-3-methoxybenzyl)-5,5-dimethylimidazolidine-2,4-dione], the IC50 was 180 nM.

On to `Cc1noc(C)c1CN1C(=O)N(c2cnn(Cc3c(C)noc3C)c2)C(=O)C1(C)C` [Example 12-21, 1-((3,5-dimethylisoxazol-4-yl)methyl)-3-(1-((3,5-dimethylisoxazol-4-yl)methyl)-1H-pyrazol-4-yl)-5,5-dimethylimidazolidine-2,4-dione], for which the IC50 turned out to be 80 nM.

Regarding `Cc1ccccc1CN1C(=O)N(c2cnn(Cc3c(C)noc3C)c2)C(=O)C1(C)C` [Example 12-22, 3-(1-((3,5-dimethylisoxazol-4-yl)methyl)-1H-pyrazol-4-yl)-5,5-dimethyl-1-(2-methylbenzyl)imidazolidine-2,4-dione], the IC50 turned out to be 100 nM.

Regarding `Cc1noc(C)c1Cn1cc(N2C(=O)N(C(C)c3ccccc3)C(C)(C)C2=O)cn1` (centres unmarked) [Example 12-24, 3-(1-((3,5-dimethylisoxazol-4-yl)methyl)-1H-pyrazol-4-yl)-5,5-dimethyl-1-(1-phenylethyl)imidazolidine-2,4-dione], the IC50 amounted to 150 nM.

For the compound `Cc1noc(C)c1Cn1cc(N2C(=O)N(Cc3cc(C)n(C)n3)C(C)(C)C2=O)cn1` [Example 12-25, 1-((1,5-dimethyl-1H-pyrazol-3-yl)methyl)-3-(1-((3,5-dimethylisoxazol-4-yl)methyl)-1H-pyrazol-4-yl)-5,5-dimethylimidazolidine-2,4-dione], the IC50 came out at 160 nM.

For the compound `Cc1cc(CN2C(=O)N(c3cnn(Cc4c(C)noc4C)c3)C(=O)C2(C)C)n(C)n1` [Example 12-26, 1-((1,3-dimethyl-1H-pyrazol-5-yl)methyl)-3-(1-((3,5-dimethylisoxazol-4-yl)methyl)-1H-pyrazol-4-yl)-5,5-dimethylimidazolidine-2,4-dione], the IC50 turned out to be 230 nM.

As for `Cc1noc(C)c1Cn1cc(N2C(=O)N(CCOc3ccccc3)C(C)(C)C2=O)cn1` [Example 12-27, 3-(1-((3,5-dimethylisoxazol-4-yl)methyl)-1H-pyrazol-4-yl)-5,5-dimethyl-1-(2-phenoxyethyl)imidazolidine-2,4-dione], the 50% inhibitory concentration (IC50) was 350 nM.

`COCCN1C(=O)N(c2cnn(Cc3c(C)noc3C)c2)C(=O)C1(C)C` [Example 12-28, 3-(1-((3,5-dimethylisoxazol-4-yl)methyl)-1H-pyrazol-4-yl)-1-(2-methoxyethyl)-5,5-dimethylimidazolidine-2,4-dione]: the IC50 stood at 590 nM.

With `Cc1noc(C)c1Cn1cc(N2C(=O)N(Cc3ccc(F)cc3)C(C)(C)C2=O)cn1` [Example 12-29, 3-(1-((3,5-dimethylisoxazol-4-yl)methyl)-1H-pyrazol-4-yl)-1-(4-fluorobenzyl)-5,5-dimethylimidazolidine-2,4-dione], the IC50 turned out to be 80 nM.

As for `COc1ccc(CN2C(=O)N(c3cnn(Cc4c(C)noc4C)c3)C(=O)C2(C)C)cc1OC` [Example 12-30, 1-(3,4-dimethoxybenzyl)-3-(1-((3,5-dimethylisoxazol-4-yl)methyl)-1H-pyrazol-4-yl)-5,5-dimethylimidazolidine-2,4-dione], the IC50 stood at 80 nM.

In the case of `COc1ccccc1CN1C(=O)N(c2cnn(Cc3c(C)noc3C)c2)C(=O)C1(C)C` [Example 12-31, 3-(1-((3,5-dimethylisoxazol-4-yl)methyl)-1H-pyrazol-4-yl)-1-(2-methoxybenzyl)-5,5-dimethylimidazolidine-2,4-dione], the IC50 was found to be 80 nM.

With `COc1ccc(CN2C(=O)N(c3cnn(Cc4c(C)noc4C)c3)C(=O)C2(C)C)cc1` [Example 12-33, 3-(1-((3,5-dimethylisoxazol-4-yl)methyl)-1H-pyrazol-4-yl)-1-(4-methoxybenzyl)-5,5-dimethylimidazolidine-2,4-dione], the IC50 came to 110 nM.

Turning to `COCc1cccc(CN2C(=O)N(c3cnn(Cc4c(C)noc4C)c3)C(=O)C2(C)C)c1` [Example 12-35, 3-(1-((3,5-dimethylisoxazol-4-yl)methyl)-1H-pyrazol-4-yl)-1-(3-(methoxymethyl)benzyl)-5,5-dimethylimidazolidine-2,4-dione], the IC50 is 130 nM.

For `Cc1noc(C)c1Cn1cc(N2C(=O)N(Cc3cccnc3)C(C)(C)C2=O)cn1` [Example 12-36, 3-(1-((3,5-dimethylisoxazol-4-yl)methyl)-1H-pyrazol-4-yl)-5,5-dimethyl-1-(pyridin-3-ylmethyl)imidazolidine-2,4-dione], the IC50 came to 220 nM.

`Cc1noc(C)c1Cn1cc(N2C(=O)[C@@H](C)N(Cc3ccccc3)C2=O)cn1` [Example 12-37, (R)-1-benzyl-3-(1-((3,5-dimethylisoxazol-4-yl)methyl)-1H-pyrazol-4-yl)-5-methylimidazolidine-2,4-dione]: the IC50 came to 10 nM.

Broadly, the IC50 is the concentration at which inhibition is half-maximal.
